Measurements reported in US20260263550A1, “METHODS AND COMPOSITIONS FOR TREATING, PREVENTING, INHIBITING, AMELIORATING OR DELAYING THE ONSET OF OPHTHALMIC CONDITIONS” (Stealth BioTherapeutics Inc., priority 2021, published 2026).

Experiment: in vivo
Conditions: cynomolgus monkey, sc; for concentration at 29 study day: Average Conc.
Method: Male and female cynomolgus monkeys were divided into four groups (Groups 1 to 4). Groups 1 and 4 consisted of five males and five females each and Groups 2 and 3 consisted of three males and three females each. Animals were dosed via SC injection once daily for 28 consecutive days. Group 1 animals received the control article, 0.9% sodium chloride injection, USP (saline). Group 2, 3, and 4 animals received the test article, compound of Formula IIa, at dose levels of 2, 5, and 15 mg/kg/day, respectively. Three males and three females from Groups 1 to 3, and three males and one female from Group 4 were necropsied on Day 29 (terminal necropsy). Two males and two females from Groups 1 and 4 were necropsied on Day 42 (recovery necropsy), after a 13-day treatment-free period. […] Safety endpoints included daily clinical and weekly detailed observations, food evaluation, dermal scoring of the injection site, body weight, ophthalmology, electrocardiography (ECG), hematology, coagulation, serum chemistry, and urinalysis. Blood was collected at multiple time points. At termination, gross observations and organ weights were recorded, and eye/optic nerve tissue samples were collected for microscopic evaluation and biodistribution assays.
Preparation of dose formulations. Dose formulation preparations were performed once weekly in a biosafety cabinet using clean techniques. The test article dosing formulations were prepared by diluting the 100 mg/mL (nominal concentration) compound of Formula IIa stock solution in the appropriate volume of 0.9% Sodium Chloride Injection, USP. All formulations (including Group 1, control) were filtered using a 0.22 μm polyethersulfone (PES) syringe filter. Osmolarity and pH were measured and recorded, then the dosing formulations were aliquoted into a sufficient number of sterile glass vials for daily use over one week. All aliquots were stored in a refrigerator set to maintain 4° C. and used within 7 days after preparation.
Test system. The test system was cynomolgus monkey, originating from Cambodia, supplied by Worldwide Primates. The animals were identified by unique skin tattoos. The body weight of the animals ranged from 1.6. to 2.4 kg at initiation of dosing and the ages ranged from 2.0 to 3.1 years at the initiation of dosing. For acclimation, there were 18 males and 18 females. For dosing, 16 males and 16 females were used.
Administration of dose formulations. The dose formulations were administered to appropriate animals by subcutaneous injection into the interscapular area once daily for 28 days using disposable syringe and needle. Four subcutaneous dose sites (upper left/right and lower left/right) were designated on the dorsal back using permanent marker or tattoo placed during acclimation avoiding the spine, with no edges overlapping and with a maximum practical distance between the dose sites. The designated dosing sites were shaved, and injection was rotated among them. If a designated site was not suitable for administration (e.g., due to wound, scab/crust, etc.), the next suitable site was used for dosing and appropriately documented.
Necropsy. Animals were fasted overnight prior to termination. Following blood collection on the day of necropsy, animals were sedated, weighed, and euthanized by an overdose of euthanasia solution, followed by whole body perfusion flush with phosphate buffered saline. Animals were subjected to a complete macroscopic examination and tissue collection. Bone marrow smears were prepared from the sternum at scheduled necropsy. Two females were necropsied early on Days 25 and 27. Blood samples (hematology, coagulation, and serum chemistry) were collected prior to euthanasia, after which a complete macroscopic examination was performed.
Tissue collection and preservation. Left eyes and optic nerves were fixed in a solution of 2.5% NBF and 3% Glutaraldehyde, and right eyes and optic nerves were frozen for biodistribution.
Biodistribution analysis—right eye and optic nerve. […]

[1] = male, 15 mg/kg/day, Average Concentration, Aqueous Humor
[2] = male, 15 mg/kg/day, Average Concentration, Choroid
[3] = male, 15 mg/kg/day, Average Concentration, Conjunctiva
[4] = male, 15 mg/kg/day, Average Concentration, Cornea
[5] = male, 15 mg/kg/day, Average Concentration, ICB (iris/ciliary body)
[6] = male, 15 mg/kg/day, Average Concentration, Optic Nerve
[7] = male, 15 mg/kg/day, Average Concentration, Retina
[8] = male, 15 mg/kg/day, Average Concentration, Sclera
[9] = male, 15 mg/kg/day, Average Concentration, Vitreous Humor

With `Cc1cc(O)cc(C)c1C[C@H](NC(=O)[C@H](N)CCCNC(=N)N)C(=O)N[C@@H](CCCCN)c1nc(Cc2ccccc2)no1.Cl.Cl.Cl` [Formula IIa, (R)-2-amino-N—((S)-1-(((S)-5-amino-1-(3-benzyl-1,2,4-oxadiazol-5-yl)pentyl)amino)-3-(4-hydroxy-2,6-dimethylphenyl)-1-oxopropan-2-yl)-5-guanidinopentanamide] the “Average Concentration” value (2 mg/kg) was “<LLOQ”, the Conc. (2 mg/kg) was “<LLOQ” and the Concentration (2 mg/kg) was “<LLOQ”. For the same compound, the “Average Concentration” value (5 mg/kg) was “<LLOQ”, the Conc. (5 mg/kg) was “<LLOQ” and the Concentration (5 mg/kg) was “<LLOQ”. For the same compound, the “Average Concentration” value (15 mg/kg) was “<LLOQ”, the Conc. (15 mg/kg) was “<LLOQ” and the Concentration (15 mg/kg) was “<LLOQ”. For the same compound, the concentration at 29 study day (female, 2 mg/kg) was 17500 ng/g, the concentration at 29 day (female, 2 mg/kg/day, Average Concentration, Aqueous Humor) was 2.76 ng/mL and the concentration at 29 day (female, 2 mg/kg/day, Average Concentration, Choroid) was 2500 ng/g. For the same compound, the concentration at 29 day (female, 2 mg/kg/day, Average Concentration, Conjunctiva) was 835 ng/g, the concentration at 29 day (female, 2 mg/kg/day, Average Concentration, Cornea) was 27.2 ng/g and the concentration at 29 day (female, 2 mg/kg/day, Average Concentration, ICB (iris/ciliary body)) was 375 ng/g. For the same compound, the concentration at 29 day (female, 2 mg/kg/day, Average Concentration, Optic Nerve) was 17500 ng/g, the concentration at 29 day (female, 2 mg/kg/day, Average Concentration, Retina) was 7390 ng/g and the concentration at 29 day (female, 2 mg/kg/day, Average Concentration, Sclera) was 446 ng/g. It also gave a concentration at 29 day (female, 2 mg/kg/day, Average Concentration, Vitreous Humor) of 13.1 ng/mL, a concentration at 29 day (female, 2 mg/kg/day, Concentration (ng/g), Cornea (individual animals)) of 53.4 ng/g and a concentration at 29 day (female, 2 mg/kg/day, Concentration (ng/mL), Cornea (individual animals)) of 2.67 ng/mL. The concentration at 29 study day (female, 5 mg/kg) was 31800 ng/g, the concentration at 29 day (female, 5 mg/kg/day, Average Concentration, Aqueous Humor) was 25.9 ng/mL and the concentration at 29 day (female, 5 mg/kg/day, Average Concentration, Choroid) was 3210 ng/g. The concentration at 29 day (female, 5 mg/kg/day, Average Concentration, Conjunctiva) was 1770 ng/g, the concentration at 29 day (female, 5 mg/kg/day, Average Concentration, Cornea) was 56.1 ng/g and the concentration at 29 day (female, 5 mg/kg/day, Average Concentration, ICB (iris/ciliary body)) was 800 ng/g. For the same compound, the concentration at 29 day (female, 5 mg/kg/day, Average Concentration, Optic Nerve) was 31800 ng/g, the concentration at 29 day (female, 5 mg/kg/day, Average Concentration, Retina) was 20100 ng/g and the concentration at 29 day (female, 5 mg/kg/day, Average Concentration, Sclera) was 837 ng/g. It also gave a concentration at 29 day (female, 5 mg/kg/day, Average Concentration, Vitreous Humor) of 23.3 ng/mL, a concentration at 42 day (female, 15 mg/kg/day, Average Concentration, Aqueous Humor) of 9.83 ng/mL and a concentration at 42 day (female, 15 mg/kg/day, Average Concentration, Choroid) of 27600 ng/g. For the same compound, the concentration at 42 day (female, 15 mg/kg/day, Average Concentration, Conjunctiva) was 4540 ng/g, the concentration at 42 day (female, 15 mg/kg/day, Average Concentration, Cornea) was 149 ng/g and the concentration at 42 day (female, 15 mg/kg/day, Average Concentration, ICB (iris/ciliary body)) was 3160 ng/g. For the same compound, the concentration at 42 day (female, 15 mg/kg/day, Average Concentration, Optic Nerve) was 40800 ng/g, the concentration at 42 day (female, 15 mg/kg/day, Average Concentration, Retina) was 67000 ng/g and the concentration at 42 day (female, 15 mg/kg/day, Average Concentration, Sclera) was 4700 ng/g. It also gave a concentration at 42 day (female, 15 mg/kg/day, Average Concentration, Vitreous Humor) of 62.7 ng/mL, a concentration at 42 day (female, 15 mg/kg/day, Concentration (ng/g), Sclera (individual animals)) of 5140 ng/g and a concentration at 29 study day (male, 2 mg/kg) of 22000 ng/g. For the same compound, the “Concentration, Aqueous Humor (individual animals)” value (male, 2 mg/kg/day, 29 day) was 2.94 ng/mL, the concentration at 29 day (male, 2 mg/kg/day, Average Concentration, Aqueous Humor) was 2.31 ng/mL and the concentration at 29 day (male, 2 mg/kg/day, Average Concentration, Choroid) was 1890 ng/g. The concentration at 29 day (male, 2 mg/kg/day, Average Concentration, Conjunctiva) was 603 ng/g, the concentration at 29 day (male, 2 mg/kg/day, Average Concentration, Cornea) was 39.3 ng/g and the concentration at 29 day (male, 2 mg/kg/day, Average Concentration, ICB (iris/ciliary body)) was 354 ng/g. For the same compound, the concentration at 29 day (male, 2 mg/kg/day, Average Concentration, Optic Nerve) was 22000 ng/g, the concentration at 29 day (male, 2 mg/kg/day, Average Concentration, Retina) was 2770 ng/g and the concentration at 29 day (male, 2 mg/kg/day, Average Concentration, Sclera) was 701 ng/g. For the same compound, the concentration at 29 day (male, 2 mg/kg/day, Average Concentration, Vitreous Humor) was 11.2 ng/mL, the concentration at 29 day (male, 2 mg/kg/day, Concentration, Aqueous Humor (individual animals)) was 4 ng/mL and the concentration at 29 study day (male, 5 mg/kg) was 26300 ng/g. For the same compound, the concentration at 29 day (male, 5 mg/kg/day, Average Concentration, Aqueous Humor) was 5.29 ng/mL, the concentration at 29 day (male, 5 mg/kg/day, Average Concentration, Choroid) was 4060 ng/g and the concentration at 29 day (male, 5 mg/kg/day, Average Concentration, Conjunctiva) was 3560 ng/g. The concentration at 29 day (male, 5 mg/kg/day, Average Concentration, Cornea) was 64 ng/g, the concentration at 29 day (male, 5 mg/kg/day, Average Concentration, ICB (iris/ciliary body)) was 1230 ng/g and the concentration at 29 day (male, 5 mg/kg/day, Average Concentration, Optic Nerve) was 26300 ng/g. For the same compound, the concentration at 29 day (male, 5 mg/kg/day, Average Concentration, Retina) was 5760 ng/g, the concentration at 29 day (male, 5 mg/kg/day, Average Concentration, Sclera) was 1820 ng/g and the concentration at 29 day (male, 5 mg/kg/day, Average Concentration, Vitreous Humor) was 13.3 ng/mL. The concentration at 29 day [1] was 14.5 ng/mL, the concentration at 42 day [1] was 3.82 ng/mL and the concentration at 29 day [2] was 8790 ng/g. The concentration at 42 day [2] was 7880 ng/g, the concentration at 29 day [3] was 5430 ng/g and the concentration at 42 day [3] was 4380 ng/g. It also gave a concentration at 29 day [4] of 195 ng/g, a concentration at 42 day [4] of 34.8 ng/g and a concentration at 29 day [5] of 3910 ng/g. For the same compound, the concentration at 42 day [5] was 1410 ng/g, the concentration at 29 day [6] was 60000 ng/g and the concentration at 42 day [6] was 91500 ng/g. For the same compound, the concentration at 29 day [7] was 26100 ng/g, the concentration at 42 day [7] was 30200 ng/g and the concentration at 29 day [8] was 2260 ng/g. The concentration at 42 day [8] was 3870 ng/g, the concentration at 29 day [9] was 48.8 ng/mL and the concentration at 42 day [9] was 45.3 ng/mL. It also gave a concentration at 42 day (male, 15 mg/kg/day, Concentration (ng/g), Cornea (individual animals)) of 34.6 ng/g and a concentration at 42 day (male, 15 mg/kg/day, Concentration (ng/mL), Cornea (individual animals)) of 1.73 ng/mL.
